# Source: PMC11478212, “Antitumoral and Antiproliferative Potential of Synthetic Derivatives of Scorpion Peptide IsCT1 in an Oral Cavity Squamous Carcinoma Model” (Molecules, 2024)
# Experiments:
# [1] = test system: SCC-25 tumor cells; assay: CFSE-DA proliferation assay (flow cytometry); type: cell-based; conditions: 24 h, IsCT-P and AC-AFPK-IsCT1 at IC50, other peptides at 100 µM, mean ± SD of three independent experiments
# Protocol: (§1) Figure 2 Assessment of the cellular proliferative index was conducted using flow cytometry following a 24 h treatment with synthetic analogs of the IsCT1 peptide. The treatments were performed using the IC50 values obtained for the IsCT-P and AC-AFPK-IsCT1 peptides and at a concentration of 100 µM for the other peptides. (a) Representative histograms of the proliferative index were analyzed using WinMDI 5.0 software. Each color in the histogram represents a new cell population. (b) Bar graphs represent the mean ± SD of the proliferative index for SCC-9 tumor cells derived from three independent experiments. (c) Bar graphs display the mean ± SD of the proliferative index for SCC-25 tumor cells based on three independent experiments. (d) Bar graphs represent the mean ± SD of the proliferative index for normal FN1 cells from three independent experiments. (e) Bar graphs illustrate the mean ± SD of the proliferative index for normal J774 cells from three independent experiments. Statistical differences were determined using ANOVA and Tukey–Kramer multiple comparison tests. Significance levels are indicated as * p < 0.05, ** p < 0.01, and *** p < 0.001, with ‘ns’ denoting not significant.
# (§2) Tumor (SSC-9 and SSC-25) and normal cells (FN1 and J-774) were plated in 24-well plates at a density of 10^5 cells/mL for 24 h. The treated and control groups were incubated with the carboxyfluorescein marker (CFSE-DA Thermo Fisher (Waltham, MA, USA), KITC34571). CFSE-DA was diluted in PBS + 0.1% human albumin and added to the cell-containing medium. After 24 h of treatment, the cells were trypsinized, transferred to a conical tube, and centrifuged at 1500 rpm for 5 min. The supernatant was discarded and the pellet was resuspended in 1 mL of 4% paraformaldehyde in PBS for 30 min. The cells were then centrifuged, the supernatant was discarded, and the pellet was resuspended in 200 μL of FACS buffer. Readings were performed on a FACScanto flow cytometer (BD, Franklin Lakes, NJ, USA) with the number of events set to 10,000 events, and histograms were acquired and analyzed using ModFit LT 5.0 software.
# [2] = test system: SCC-9 tumor cells; assay: CFSE-DA proliferation assay (flow cytometry); type: cell-based; conditions: 24 h, IsCT-P and AC-AFPK-IsCT1 at IC50, other peptides at 100 µM, mean ± SD of three independent experiments
# Protocol: as §1, §2
# [3] = test system: normal FN1 cells; assay: Mitochondrial membrane electrical potential (ΔΨm) by flow cytometry; type: cell-based, human; conditions: 24 h, IsCT-P and AC-AFPK-IsCT1 at IC50, others 100 µM, MitoRed, compared to control cells, mean ± SD of three independent experiments
# Protocol: Figure 4 Analysis of mitochondrial electrical potential (ΔΨm) using flow cytometry following a 24 h treatment with synthetic analogs of IsCT1 peptides. The indicated cells were treated at the IC50 values obtained for the IsCT-P and AC-AFPK-IsCT1 peptides and at a concentration of 100 µM for the other peptides. (a) Representative histograms of cell distribution according to ΔΨm; (b) bar graph showing ΔΨm expressed as the mean ± SD of three independent experiments of SCC-9 tumor cells; (c) bar graph showing ΔΨm expressed as the mean ± SD of three independent experiments of SCC-25 tumor cells; (d) bar graph showing ΔΨm expressed as the mean ± SD of three independent experiments of normal FN1 cells; (e) bar graph showing ΔΨm expressed as the mean ± SD of three independent experiments of normal J774 cells. Statistical differences were obtained using ANOVA and Tukey–Kramer multiple comparison tests. * p < 0.05, ** p < 0.01, and *** p < 0.001 denote significance. ns = not significant.
# Tumor (SSC-9 and SSC-25) and normal cells (FN1 and J-774) were subjected to treatment for a period of 24 h at the peptides’ IC50 concentrations. After treatment, the cells were trypsinized, centrifuged at 1200 rpm for 5 min, the supernatant was discarded, and the cells were resuspended in complete medium containing MitoRed™ (Sigma-Aldrich, USA) (200 nM/L). […]
# [4] = test system: SCC-25 tumor cells; assay: Cellular marker expression by flow cytometry; type: cell-based
# Protocol: (§3) Figure 6 Analysis of marker expression in tongue squamous cell carcinoma tumor cells. The expression of markers was quantified using flow cytometry after 24 h of treatment with the AC-AFPK-IsCT1 peptide at its IC50 value determined for each cell line. (a) Representative density plots display the distribution of cells with fluorescence intensity; (b) marker expression in SCC-9 tumor cells; (c) marker expression in SCC-25 tumor cells. Bar graphs present protein expression levels as the mean ± SD from three independent experiments. Values are expressed as the mean ± SD from three independent experiments. Statistical differences were determined using ANOVA and Tukey–Kramer multiple comparison tests. * p < 0.05 and *** p < 0.001 denote significance. ns = not significant.
# (§4) Tumor cells SSC-9 and SSC-25, both treated with the peptides at their IC50 concentrations for 24 h and control groups (10^5 cells/mL), were incubated at 4 °C for 1 h with 1 μg of specific antibodies conjugated with Alexa Fluor™ 488. Various markers associated with cell death and cell cycle progression, such as caspase 3 and 8, cyclin D1, PCNA, p53, and TNF-α conjugated with Alexa Fluor™ 488, were used as indicated. For intracellular markers, TritonX 0.1% was used for 30 min at room temperature before antibody labeling. Following centrifugation at 1500 rpm and washing with PBS, the supernatant was discarded and the pellet was resuspended in 200 μL of FACS buffer. The reading and analysis of receptor expression on the cell surface of tumor cells were carried out using a FACScanto flow cytometer (BD) with fluorescence intensity FL1-H for the number of events (10,000 events), and the dot plots were acquired and analyzed using FCS Express software.
# [5] = test system: SCC-9 tumor cells; assay: Cellular marker expression by flow cytometry; type: cell-based
# Protocol: as §3, §4
# [6] = test system: normal FN1 cells; assay: CFSE-DA proliferation assay (flow cytometry); type: cell-based, human; conditions: 24 h, IsCT-P and AC-AFPK-IsCT1 at IC50, other peptides at 100 µM, mean ± SD of three independent experiments
# Protocol: as §1, with “(e) Bar graphs illustrate the mean ± SD of the proliferative index for normal J774 cells from three independent experiments.” left out, “Significance levels are indicated as * p < 0.05, ** p < 0.01, and *** p < 0.001, with ‘ns’ denoting not significant.” left out
# Tumor (SSC-9 and SSC-25) and normal cells (FN1 and J-774) were plated in 24-well plates at a density of 10^5 cells/mL for 24 h. […] Readings were performed on a FACScanto flow cytometer (BD, Franklin Lakes, NJ, USA) with the number of events set to 10,000 events, and histograms were acquired and analyzed using ModFit LT 5.0 software.
# [7] = 24 h at IC50, compared to control cells, mean ± SD of three independent experiments
# [8] = 24 h at IC50, mean ± SD of three independent experiments
Substance,decrease in the proliferative index [1],reduction in the proliferative index [2],decrease in ΔΨm [3],"decrease in Cyclin D1 expression [4, 7]","decrease in PCNA expression [4, 7]","increase in TNF-α-expressing cells [4, 8]","increase in caspase 3 expression [4, 8]","increase in caspase 8 expression [4, 8]","increase in p53-expressing cells [4, 8]",change in Cyclin-D1 expression ([5]; 24 h at IC50),"increase in caspase 3 expression [5, 7]","increase in caspase 8 expression [5, 7]","increase in cells expressing TNF-α [5, 7]","increase in cells expressing p53 [5, 7]","reduction in PCNA expression [5, 7]",reduction in the proliferative index [6]
Ac-ALGKFWPKIKSLF-NH2 [AC-AFPK-IsCT1],40.9 ± 2.5%,61.6 ± 1.7%,No changes,15 ± 1.3%,22.8 ± 2.5%,85.6 ± 8.4%,86.2 ± 7%,82.3 ± 5.5%,83.5 ± 1.8%,No significant changes,67 ± 4.9%,61.6 ± 3%,69.2 ± 2.6%,60.7 ± 1.6%,21.4 ± 0.4%,–
H-ILKKIWKPIKKLF-NH2 [IsCT-P],61.1 ± 2.8%,61.8 ± 8.7%,–,–,–,–,–,–,–,–,–,–,–,–,–,37.6 ± 3.9%
